# Experimental data reported in PMC4220016, “The binding characteristics and orientation of a novel radioligand with distinct properties at 5-HT3A and 5-HT3AB receptors” (Neuropharmacology, 2014).
# Read-outs that look alike come from different tables or passages of the source.
# Key:
# 5-HT3A receptors [1] = molecular target: T1, 5-HT3A receptors (Homo sapiens, UniProt P46098); assay: Competition binding with [^3H]VUF10166 at 5-HT3A receptors
# T1 sequence (P46098 24-478): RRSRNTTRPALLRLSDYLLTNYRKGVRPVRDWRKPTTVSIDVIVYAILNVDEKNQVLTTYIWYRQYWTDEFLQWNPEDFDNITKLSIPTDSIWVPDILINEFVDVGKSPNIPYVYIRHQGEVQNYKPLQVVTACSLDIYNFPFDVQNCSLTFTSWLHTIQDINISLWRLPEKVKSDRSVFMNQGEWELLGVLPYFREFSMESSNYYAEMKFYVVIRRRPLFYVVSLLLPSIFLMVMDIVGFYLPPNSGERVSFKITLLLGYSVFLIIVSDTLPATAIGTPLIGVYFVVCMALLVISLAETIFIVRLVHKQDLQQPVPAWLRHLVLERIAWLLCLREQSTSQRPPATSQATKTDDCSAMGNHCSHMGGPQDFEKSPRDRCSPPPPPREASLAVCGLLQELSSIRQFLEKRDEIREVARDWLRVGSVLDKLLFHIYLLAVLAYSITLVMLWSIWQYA
# 5-HT3AB receptors [2] = molecular target: T2, 5-HT3AB receptors (Homo sapiens, UniProt O95264+P46098); assay: Competition binding with [^3H]VUF10166 at 5-HT3AB receptors
# T2 sequence (P46098 24-478): T1 sequence (P46098 24-478)
# T2 sequence (O95264 22-441): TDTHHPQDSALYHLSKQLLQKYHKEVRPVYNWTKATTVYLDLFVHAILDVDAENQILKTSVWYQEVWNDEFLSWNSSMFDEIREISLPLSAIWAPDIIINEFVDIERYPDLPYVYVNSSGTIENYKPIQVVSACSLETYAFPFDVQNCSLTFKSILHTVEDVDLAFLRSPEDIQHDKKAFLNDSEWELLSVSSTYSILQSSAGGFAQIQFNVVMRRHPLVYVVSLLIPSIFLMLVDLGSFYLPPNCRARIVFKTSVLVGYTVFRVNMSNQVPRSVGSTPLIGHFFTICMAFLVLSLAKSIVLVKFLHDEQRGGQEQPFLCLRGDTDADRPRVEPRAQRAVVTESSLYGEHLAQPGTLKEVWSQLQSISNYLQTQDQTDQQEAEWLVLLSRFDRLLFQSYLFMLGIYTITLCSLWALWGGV
# 5-HT3A receptors [3] = molecular target: T1, 5-HT3A receptors
# 5-HT3A receptors [4] = molecular target: T1, 5-HT3A receptors; assay: biochemical
# 5-HT3AB receptors [5] = molecular target: T2, 5-HT3AB receptors; assay: biochemical
inhibition of specific [^3H]VUF10166 binding (in words) (5-HT3A receptors [1]; 5-HT3A),inhibition of specific [^3H]VUF10166 binding (in words) (5-HT3AB receptors [2]; 5-HT3AB),Compound,inhibition of specific [^3H]VUF10166 binding (in words) (5-HT3A receptors [1]),inhibition of specific [^3H]VUF10166 binding (in words) (5-HT3AB receptors [2]),also measured
not,not,NCC(=O)O [Glycine],–,–,–
–,–,CN1CCC[C@H]1c1cccnc1 [Nicotine],–,–,competition with [^3H]granisetron (in words) (5-HT3A receptors [3]): competed; IC50 (5-HT3A receptors [4]): 977 nM; IC50 (5-HT3AB receptors [5]): 275 nM; IC50 (5-HT3A receptors [1]): 155 nM; IC50 (5-HT3AB receptors [2]): 174 nM
–,–,CC(C)(C)[C@]1(O)CC2OC(=O)CC23C(=O)OC2OC(=O)[C@H](O)C231 (stereo partly shown) [Bilobalide],not and unaffected,not,–
–,–,COc1cc2c3cc1Oc1cc(ccc1O)C[C@@H]1c4c(cc(OC)c(O)c4Oc4ccc(cc4)C[C@@H]3N(C)CC2)CC[N+]1(C)C [d-Tubocurarine],inhibited,inhibited,IC50 (5-HT3A receptors [4]): 24500 nM; IC50 (5-HT3AB receptors [5]): 51300 nM; IC50 (5-HT3A receptors [1]): 3890 nM; IC50 (5-HT3AB receptors [2]): 3630 nM
–,–,CN1CCc2cc3c(cc2[C@H]1[C@@H]1OC(=O)c2c1ccc1c2OCO1)OCO3 [Bicuculline],not,not,–
–,–,CN1[C@@H]2CC[C@H]1C[C@@H](OC(=O)c1cc(Cl)cc(Cl)c1)C2 [MDL72222],inhibited,inhibited,–
–,–,CC1C(=O)O[C@H]2[C@H](O)[C@@]34[C@H]5C[C@@H](C(C)(C)C)[C@@]36C(O)C(=O)O[C@H]6O[C@@]4(C(=O)O5)[C@@]12O (stereo partly shown) [Ginkgolide],not and unaffected,not,–
inhibited,inhibited,c1ccc2nc(N3CCNCC3)ccc2c1 [Quipazine],–,–,–
–,–,O=C1C[C@@H]2OCC=C3CN4CC[C@]56c7ccccc7N1[C@H]5[C@H]2[C@H]3C[C@H]46 [Strychnine],–,–,competition with [^3H]granisetron (in words) (5-HT3A receptors [3]): competed; IC50 (5-HT3A receptors [4]): 50100 nM; IC50 (5-HT3AB receptors [5]): 14100 nM; IC50 (5-HT3A receptors [1]): 1480 nM; IC50 (5-HT3AB receptors [2]): 550 nM
not,not,COc1ccc(-c2ccc(=N)n(CCCC(=O)O)n2)cc1 [Gabazine],–,–,–
–,–,Picrotoxin,not and unaffected,not,–
not,not,CC(=O)OCC[N+](C)(C)C [ACh],–,–,–
